SMILES strings stand for the structures.

Our source for the IC50 values is patent US9415055B2, “Cyclic amines” (H. Lundbeck A/S, priority 2012, dated 2016).

For the experiment, the target named is P2X7 receptor (Homo sapiens (Human), UniProt Q99572). Description: P2X7 FLIPR assay: antagonism of BzATP response in 293 HEK cells stably expressing P2X7 receptor. To be noted: FLIPR fluorescence (Fluo-4), agonist BzATP, 293 HEK cells stably transfected with P2X7 receptor. It is filed as cell-based. In short, it runs like this:
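Antagonist IC50 derived from FLIPR Tetra Fluo-4 calcium signal evoked by BzATP. Compound pre-incubation was 30 min at room temperature on P2X7-expressing HEK293 cells, seeded 24 h before in low-serum medium and dye-loaded 30 min at 37 °C then 30 min at RT.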

P2X7 receptor, sequence (Q99572 whole entry): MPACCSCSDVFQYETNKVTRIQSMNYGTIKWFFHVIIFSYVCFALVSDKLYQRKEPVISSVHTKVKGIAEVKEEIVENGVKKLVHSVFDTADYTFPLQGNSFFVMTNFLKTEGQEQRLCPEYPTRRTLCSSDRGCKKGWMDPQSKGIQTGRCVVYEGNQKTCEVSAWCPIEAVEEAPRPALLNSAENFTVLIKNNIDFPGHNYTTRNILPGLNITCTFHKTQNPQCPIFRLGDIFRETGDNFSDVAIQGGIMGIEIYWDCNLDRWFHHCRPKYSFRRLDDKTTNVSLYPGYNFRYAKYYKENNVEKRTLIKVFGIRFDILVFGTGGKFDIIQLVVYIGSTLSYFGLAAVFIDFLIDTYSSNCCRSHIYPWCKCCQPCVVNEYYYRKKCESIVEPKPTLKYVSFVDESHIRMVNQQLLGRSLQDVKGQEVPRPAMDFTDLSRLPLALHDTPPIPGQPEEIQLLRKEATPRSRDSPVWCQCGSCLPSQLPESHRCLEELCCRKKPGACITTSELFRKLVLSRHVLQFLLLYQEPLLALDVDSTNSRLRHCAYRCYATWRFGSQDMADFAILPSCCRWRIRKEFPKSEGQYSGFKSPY

On to `Cn1cc(C(CNC(=O)c2ccccc2Cl)N2CCC(F)(F)CC2)cn1` (single isomer, unassigned; (+)) [(+)2-chloro-N-[2-(4,4-difluoro-1-piperidyl)-2-(1-methylpyraz] [(+)2-chloro-N-(2-(4,4-difluoropiperidin-1-yl)-2-(1-methyl-1H-pyrazol-4-yl)ethyl)benzamide], for which the half-maximal inhibitory concentration (IC50) (usually the concentration that gives 50% inhibition) was 180 nM. This lies in the sub-micromolar range.
As for `O=C(NCC(c1ccc(C(F)(F)F)nc1)N1CCC(F)(F)CC1)c1ccccc1Cl` (stereo not shown) [2-Chloro-N-[2-(4,4-difluoro-1-piperidyl)-2-[6-(trifluoromethyl)-3-pyridyl]ethyl]benzamide], the figure is 1.8 nM; as for `Cc1ncc(C(CNC(=O)c2cccc(Cl)c2Cl)N2CCCOCC2)cn1` (stereo not shown) [2,3-dichloro-N-(2-(2-methylpyrimidin-5-yl)-2-(1,4-oxazepan-4-yl)ethyl)benzamide], 29 nM.
With `Cc1ncc(C(CNC(=O)c2c(F)cccc2Cl)N2CCCOCC2)cn1` (stereo not shown) [2-chloro-6-fluoro-N-(2-(2-methylpyrimidin-5-yl)-2-(1,4-oxazepan-4-yl)ethyl)benzamide] the figure was 820 nM; with `O=C(NCC(c1cnc(C2CC2)nc1)N1CCC(F)(F)CC1)c1c(Cl)cccc1Cl` (single isomer, unassigned; (+)) [(+)2,6-dichloro-N-(2-(2-cyclopropylpyrimidin-5-yl)-2-(4,4-difluoropiperidin-1-yl)ethyl)benzamide], 5.3 nM; with `Cn1cc(C(CNC(=O)c2c(Cl)cccc2Cl)N2CCC(F)(F)CC2)cn1` (single isomer, unassigned; (-)) [(−)2,6-dichloro-N-[2-(4,4-difluoro-1-piperidyl)-2-(1-methylp] [(−)2,6-dichloro-N-(2-(4,4-difluoropiperidin-1-yl)-2-(1-methyl-1H-pyrazol-4-yl)ethyl)benzamide], 44 nM.
With `O=C(NCC(c1cnc(C(F)(F)F)nc1)N1CCC(F)(F)CC1)c1ccc(Cl)cc1Cl` (single isomer, unassigned; (-)) [(−)2,4-dichloro-N-[2-(4,4-difluoro-1-piperidyl)-2-[2-(triflu] [(−)2,4-dichloro-N-(2-(4,4-difluoropiperidin-1-yl)-2-(2-(trifluoromethyl)pyrimidin-5-yl)ethyl)benzamide] the figure was 6.4 nM; with `Cc1ncc(C(CNC(=O)c2ccccc2Cl)N2CCCC(F)(F)C2)cn1` (single isomer, unassigned; (-)) [(−)2-chloro-N-[2-(3,3-difluoro-1-piperidyl)-2-(2-methylpyrim] [(−)2-chloro-N-(2-(3,3-difluoropiperidin-1-yl)-2-(2-methylpyrimidin-5-yl)ethyl)benzamide], 28 nM; with `O=C(NCC(c1cnc(C(F)(F)F)nc1)N1CCOCC1)c1cccc(Cl)c1Cl` (single isomer, unassigned; (-)) [(−)2,3-dichloro-N-[2-morpholino-2-[2-(trifluoromethyl)pyrimi] [(−)2,3-Dichloro-N-[2-morpholino-2-[2-(trifluoromethyl)pyrimidin-5-yl]ethyl]benzamide], 3.2 nM.
Regarding `O=C(NCC(c1ccc(C(F)(F)F)nc1)N1CCC(F)(F)CC1)c1c(F)cccc1Cl` (single isomer, unassigned; (+)) [(+)2-chloro-6-fluoro-N-(2-(4,4-difluoropiperidin-1-yl)-2-(2-(trifluoromethyl)pyridin-5-yl)ethyl)benzamide], the IC50 was found to be 0.62 nM.
With `O=C(NCC(c1cnc(C2CC2)nc1)N1CCC(F)(F)CC1)c1ccccc1Cl` (single isomer, unassigned; (-)) [(−)2-chloro-N-[2-(2-cyclopropylpyrimidin-5-yl)-2-(4,4-difluo] [(−)2-chloro-N-(2-(2-cyclopropylpyrimidin-5-yl)-2-(4,4-difluoropiperidin-1-yl)ethyl)benzamide] the figure was 7.6 nM; with `COc1ccc(C(CNC(=O)c2ccccc2C)N2CCCCC2)cc1` (stereo not shown) [N-[2-(4-Methoxy-phenyl)-2-piperidin-1-yl-ethyl]-2-methyl-benzamide], 3900 nM.
With `Cc1ncc(C(CNC(=O)c2cccc(Cl)c2Cl)N2CCC(C)C2)cn1` (stereo not shown) [2,3-dichloro-N-(2-(2-methylpyrimidin-5-yl)-2-(3-methylpyrrolidin-1-yl)ethyl)benzamide] the figure was 1000 nM.
`Cc1ncc(C(CNC(=O)c2c(F)cccc2Cl)N2CCCC(F)(F)C2)cn1` (single isomer, unassigned; (-)) [(−)2-chloro-N-[2-(3,3-difluoro-1-piperidyl)-2-(2-methylpyrim] [(−)2-chloro-6-fluoro-N-(2-(3,3-difluoropiperidin-1-yl)-2-(2-methylpyrimidin-5-yl)ethyl)benzamide] had an IC50 of 280 nM.
As for `O=C(NCC(c1ccc(F)cc1)N1CCOCC1)c1cccc(Cl)c1Cl` (stereo not shown) [2,3-Dichloro-N-[2-(4-fluoro-phenyl)-2-morpholin-4-yl-ethyl]-benzamide], the figure is 11 nM.
As to `N#Cc1ccc(Cl)c(C(=O)NCC(c2ccc(Cl)cc2)N2CCOCC2)c1` (single isomer, unassigned; (-)) [(−)2-chloro-N-[2-(4-chlorophenyl)-2-morpholino-ethyl]-5-cyan] [(−)2-chloro-N-(2-(4-chlorophenyl)-2-morpholinoethyl)-5-cyanobenzamide], the IC50 worked out at 110 nM. This IC50 lies about 10-fold higher than the previous one.
